For four molecules, IC50 results are on record in patent publication EP0895988B1, “Arylsulfonylamino hydroxamic acid derivatives” (Pfizer Products Inc., priority 1997, dated 1999).

The structures appear in SMILES notation. pIC50: −log10 of the molar value. Values joined by “and” are separate entries in the source; they are usually repeats but may differ in a detail not shown here. Identical values can stand only once.

Experiment [1] has as its target T1, Human recombinant collagenase (MMP-1) (Homo sapiens, UniProt P03956).
T1 sequence (P03956 100-469): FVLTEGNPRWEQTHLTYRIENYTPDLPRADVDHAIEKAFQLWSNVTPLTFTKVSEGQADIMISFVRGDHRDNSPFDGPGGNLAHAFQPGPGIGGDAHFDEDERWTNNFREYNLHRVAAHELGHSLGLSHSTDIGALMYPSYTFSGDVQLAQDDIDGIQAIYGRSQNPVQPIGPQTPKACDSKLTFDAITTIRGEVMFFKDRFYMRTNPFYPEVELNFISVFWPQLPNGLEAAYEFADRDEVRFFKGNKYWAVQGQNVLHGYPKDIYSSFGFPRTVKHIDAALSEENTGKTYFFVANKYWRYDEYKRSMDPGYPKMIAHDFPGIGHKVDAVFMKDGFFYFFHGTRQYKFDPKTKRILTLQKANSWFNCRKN
Put plainly: Inhibition of Human Collagenase (MMP-1). Type of experiment: biochemical. Particulars: fluorogenic substrate DNP-Pro-Cha-Gly-Cys(Me)-His-Ala-Lys(NMA)-NH2; room temperature; repeated determinations. On the procedure: Human recombinant collagenase is activated with trypsin using the following ratio: […] of collagenase. The trypsin and collagenase are incubated at room temperature for 10 minutes then a five fold excess (50 mg/10 mg trypsin) of soybean trypsin inhibitor is added.
10 mM stock solutions of inhibitors are made up in dimethyl sulfoxide and then diluted using the following Scheme: 10 mM → 120 µm → 12 µM → 1.2 µM → 0.12 µM [formula]
Twenty-five microliters of each concentration is then added in triplicate to appropriate wells of a 96 well microfluor plate. The final concentration of inhibitor will be a 1:4 dilution after addition of enzyme and substrate. Positive controls (enzyme, no inhibitor) are set up in wells D1-D6 and blanks (no enzyme, no inhibitors) are set in wells D7-D12.
Collagenase is diluted to 400 ng/ml and […] is then added to appropriate wells of the microfluor plate. Final concentration of collagenase in the assay is 100 ng/ml.
Substrate (DNP-Pro-Cha-Gly-Cys(Me)-His-Ala-Lys(NMA)-NH2) is made as a 5 mM stock in dimethyl sulfoxide and then diluted to […] in assay buffer. The assay is initiated by the addition of […] substrate per well of the microfluor plate to give a final concentration of […].
Fluorescence readings (360 nm excitation, 460 nm emission) were taken at time 0 and then at 20 minute intervals. The assay is conducted at room temperature with a typical assay time of 3 hours.
Fluorescence vs time is then plotted for both the blank and collagenase containing samples (data from triplicate determinations is averaged). […] The zero time is used as a blank for each compound at each concentration and these values are subtracted from the 120 minute data. Data is plotted as inhibitor concentration vs % control (inhibitor fluorescence divided by fluorescence of collagenase alone x 100). IC50's are determined from the concentration of inhibitor that gives a signal that is 50% of the control.
If IC50's are reported to be <0.03 mM then the inhibitors are assayed at concentrations of 0.3 mM, 0.03 mM, […].

The next experiment addresses Human recombinant MMP-13 (Homo sapiens, UniProt P45452). Put plainly: Inhibition of MMP-13. Particulars: fluorogenic substrate Dnp-Pro-Cha-Gly-Cys(Me)-His-Ala-Lys(NMA)-NH2; repeated determinations. Type of experiment: biochemical. The method, then: Human recombinant MMP-13 is activated with 2mM APMA (p-aminophenyl mercuric acetate) for 1.5 hours, at 37°C and is diluted to […] in assay buffer (50 mM Tris, pH 7.5, 200 mM sodium chloride, 5mM calcium chloride, […], 0.02% brij). Twenty-five microliters of diluted enzyme is added per well of a 96 well microfluor plate. The enzyme is then diluted in a 1:4 ratio in the assay by the addition of inhibitor and substrate to give a final concentration in the assay of […].
10 mM stock solutions of inhibitors are made up in dimethyl sulfoxide and then diluted in assay buffer as per the inhibitor dilution scheme for inhibition of human collagenase (MMP-1): Twenty-five microliters of each concentration is added in triplicate to the microfluor plate. The final concentrations in the assay are 30 mM, 3mM, 0.3 mM, and 0.03 mM.
Substrate (Dnp-Pro-Cha-Gly-Cys(Me)-His-Ala-Lys(NMA)-NH2) is prepared as for inhibition of human collagenase (MMP-1) and […] is added to each well to give a final assay concentration of […]. Fluorescence readings (360 nm excitation; 450 emission) are taken at time 0 and every 5 minutes for 1 hour.
Positive controls consist of enzyme and substrate with no inhibitor and blanks consist of substrate only.
IC50's are determined as per inhibition of human collagenase (MMP-1). If IC50's are reported to be less than […], inhibitors are then assayed at final concentrations of 0.3 mM, 0.03 mM, 0.003 mM and 0.0003 mM.

For orientation: pIC50 means the IC50 on a negative log10 scale, so that one unit is a factor of ten. In the case of `COC(=O)CCN(C1(C(=O)NO)CCCC1)S(=O)(=O)c1ccc(-c2ccc(F)cc2)cc1` [Example 1, 3-[(4'-FLUOROBIPHENYL-4-SULFONYL)-(1-HYDROXYCARBAMOYLCYCLO-PENTYL)AMINO]PROPIONIC ACID METHYL ESTER], the pIC50 in experiment [1] is 7.10 and 6.84; on Human recombinant MMP-13, 8.00 and 7.92.
With `O=C(O)CCN(C1(C(=O)NO)CCCC1)S(=O)(=O)c1ccc(-c2ccc(F)cc2)cc1` [Example 2, 3-[(4'-FLUOROBIPHENYL-4-SULFONYL)-(1-HYDROXYCARBAMOYLCYCLO-PENTYL)AMINO]PROPIONIC ACID], the pIC50 in experiment [1] is 6.71 and 6.52 and 6.70; on Human recombinant MMP-13, 8.77 and 8.46 and 8.70.
For the molecule `CCOC(=O)CCN(C(C)(C)C(=O)NO)S(=O)(=O)c1ccc(-c2ccc(F)cc2)cc1` [Example 3, 3-{(4'-FLUOROBIPHENYL-4-SULFONYL)-(1-HYDROXYCARBAMOYL-1-METHYL-ETHYL)AMINO]-PROPIONIC ACID ETHYL ESTER], the negative-log IC50 (pIC50) is 5.40 and 5.89 in experiment [1]; 7.70 and 7.77 at Human recombinant MMP-13.
As to `CC(C)(C(=O)NO)N(CCC(=O)O)S(=O)(=O)c1ccc(-c2ccc(F)cc2)cc1` [Example 4, 3-[(4'-FLUOROBIPHENYL-4-SULFONYL)-(1-HYDROXYCARBAMOYL-1-METHYL-ETHYL)AMINO]PROPIONIC ACID], the pIC50 was 6.10 in experiment [1] and 7.28 on Human recombinant MMP-13.
